Measurements from US20220387460A1, “LIPOSOME COMPOSITIONS AND METHODS OF TREATMENT TARGETED TO TUMOR ENDOTHELIUM” (Washington University, priority 2019, published 2022).
Where two headings read alike, the source gives them in different places.

Assays:
[1] = Drug entrapment (encapsulation) efficiency by ultracentrifugation and HPLC; assay type: physicochemical; settings: drug loaded in liposomes; BTZ in lipid bilayer, Y27632 in hydrophilic core
Experimental: To evaluate loading efficiency, the liposomes were centrifuged at 38,000 rpm at 4° C. for 1 hour using a Beckman Optima™ XPN ultracentrifuge equipped with an SW 50.1 […] rotor (Beckman Coulter Inc., Fullerton, Calif., USA). The amount of BTZ and Y27632 in the supernatant was evaluated by HPLC as described in Example 9. The entrapment efficiency (EE) was calculated according to the following equation: EE=DT−DU/DT×100 where DT represents the total amount of drug added to the formulation during the preparation, and DU represents the amount of unincorporated drug found in the supernatant.

MM.1S cells [2] = test: Trans-endothelial migration of MM cells in Boyden chamber with SDF-1; assay type: cell-based; settings: 25 μM pre-treatment 3 hours, 30 nM SDF-1 (FIG. 4C)
Experimental: Trans-endothelial migration was by incubating HUVECs (5×10^3 cells) overnight in the upper chamber of a Boyden chamber (Corning), followed by an adhesion assay. MM.1S cells were pre-treated with (or without) free Y27632 (25 μM) or liposomal Y27632 (25 μM equivalent) for 3 hours. The pre-treated MM.1 S cells were then placed in the upper migration chamber in the presence or absence of 30 nM SDF-1 in the lower chamber. After 3 hours of incubation, MM.1 S cells that migrated to the lower chambers were counted by flow cytometry. The in vitro data were expressed as means±standard deviation.

MM1.S cells = test: Immunoblotting of adhesion signaling proteins (pSRC, pFAK) in MM cells co-cultured with HUVECs; assay type: cell-based; settings: 25 μM, 6 hours (FIG. 4A)
Experimental: (§1) HUVECs and MM1.S cells were co-cultured overnight and treated with vehicle (control), free Y27632 (25 μM), free BTZ (5 nM), empty liposomes, liposomal Y27632 (25 μM), liposomal BTZ (5 nM) for 6 hours. MM cells were then separated from the HUVECs and both cell types were collected. The proteins were then extracted and subjected to immunoblotting for pSRC, pFAK, p21, pRB, cPARP, cCasp3, cCasp9, pAKT, pS6R, pERK, and α-Tubulin.
(§2) The immunoblotting protocol was performed as previously described below. Briefly, cells were lysed with 1× lysis buffer (Cell Signaling, #9803), the protein concentration was determined by Bradford assay (BioRad, Hercules, Calif.), and 50 μg of protein was loaded per lane. Electrophoresis was performed using NuPAGE 4%-12% Bis-Tris gels (Novex, Life Technologies, Grand Island, N.Y.) and transferred to a nitrocellulose membrane using iBlot (Invitrogen). Membranes were blocked with 5% non-fat milk in Tris-Buffered Saline/Tween20 (TBST) buffer and incubated with primary antibodies overnight at 4° C. The membranes were then washed with TBST for 30 minutes, incubated for 1 hour at room temperature with horseradish peroxidase (HRP)-conjugated secondary antibody, washed, and developed using Novex ECL Plus chemiluminescent Kit. Images were taken using a ChemiDoc XRS imaging system (Bio-Rad).

HUVECs [3] = test: Immunoblotting of adhesion signaling proteins (pSRC, pFAK) in HUVECs co-cultured with MM cells; assay type: cell-based, human; settings: 25 μM, 6 hours (FIG. 4B)
Experimental: as §1, §2

MM.1S-GFP-Luc cells = test: MM tumor progression (BLI) and survival in MM.1S-GFP-Luc-bearing mice; assay type: in vivo; settings: weekly intravenous, BTZ 1 mg/kg; for tumor progression / tumor growth (BLI): Y27632 2.5 mg/kg (FIGS. 6A-C, 8A-D); for survival of the mice: Y27632 2.5 mg/kg (FIGS. 6D-F, 9A-D)
Experimental: Mice were randomized into 12 groups of 7 mice each, which received weekly intravenous injections of: (i) saline, (ii) Y27632 as a free drug (2.5 mg/kg), (iii) BTZ as a free drug (1 mg/kg), (iv) combination of free BTZ and free Y27632, (v) empty non-targeted liposomes, (vi) non-targeted liposomal Y27632 (2.5 mg/kg-equivalent), (vii) non-targeted liposomal BTZ (1 mg/kg), (viii) non-targeted liposomal combination of BTZ and Y27632 in the same liposome (2.5 mg/kg and 1 mg/kg, respectively), (ix) empty PSGL-1-targeted liposomes, (x) PSGL-1-targeted liposomal Y27632 (2.5 mg/kg), (xi) PSGL-1-targeted liposomal BTZ (1 mg/kg), (xii) PSGL-1-targeted liposomal combination of BTZ and Y27632 in the same liposome (2.5 mg/kg and 1 mg/kg, respectively). Tumor progression was assessed weekly by BLI, weight was recorded twice a week, and survival and general health of mice were recorded daily. The in vivo data were expressed as means±standard deviation.

MM.1S cells [4] = test: Viability of MM cells in co-culture with HUVECs (flow cytometry); assay type: cell-based; settings: Homo sapiens; 24 hours, 0-50 nM, co-culture with HUVECs (FIG. 5B); read-out: IC50, killing of MM cells
Experimental: (§3) DiD-labeled HUVECs and DiO-labeled MM.1S cells were co-cultured overnight and treated with free BTZ (0-50 nM) or liposomal BTZ (0-50 nM-equivalent) for 24 hours, and the survival of the MMs and HUVECs was analyzed via flow cytometry. MM cells were gated as DiO+ cells and HUVECs were gated as DiD+ cells, and each cell population was counted and normalized against counting beads (Invitrogen), and survival was calculated as a percentage of vehicle-treated controls. The in vitro data were expressed as means±standard deviation.

HUVECs [5] = test: Viability of HUVECs in co-culture with MM cells (flow cytometry); assay type: cell-based, human; settings: 24 hours, 0-50 nM, co-culture with MM.1S (FIG. 5C)
Experimental: as §3

[6] = in vivo; cited from earlier work
[7] = cited from earlier work
relapsed MM patients = settings: combination treatment of AMD3100 and BTZ; cited from earlier work

Row | Compound | maximal encapsulation efficiency (EE) [1] | SDF-induced trans-endothelial migration of MM cells (MM.1S cells [2]) | adhesion signaling proteins (pSRC and pFAK) in MM cells (MM1.S cells) | adhesion signaling proteins (pSRC and pFAK) in HUVECs (HUVECs [3]) | tumor progression / tumor growth (BLI) (MM.1S-GFP-Luc cells) | survival of the mice (MM.1S-GFP-Luc cells) | IC50 (MM.1S cells [4]) | survival of HUVECs (HUVECs [5]) | pharmacokinetic (PK) half-life [6] | maximum tolerated dose ([7]; intravenous bolus on days 1, 4, 8, and 11 of a 3-week cycle (Vorhees 2003)) | maximum tolerated dose ([7]; intravenously once or twice weekly, patients with solid tumors (Orlowski 2003)) | overall response rate (relapsed MM patients)
1 | C[C@@H](N)[C@H]1CC[C@H](C(=O)Nc2ccncc2)CC1 [Y27632] | 55% | reversed | decreased adhesion signaling | decreased adhesion signaling | did not affect the tumor growth | did not extend the survival | – | – | – | – | – | –
2 | CC(C)C[C@H](NC(=O)[C@H](Cc1ccccc1)NC(=O)c1cnccn1)B(O)O [BTZ, bortezomib] | 77% | – | – | – | delayed significantly the tumor growth | significantly prolonged the survival | ~10 nM | No effect | 40 h | about 1.56 mg/m^2 | 1.3 mg/m^2 | –
3 | c1cc(CN2CCCNCCNCCCNCC2)ccc1CN1CCCNCCNCCCNCC1 [AMD3100] | – | – | – | – | – | – | – | – | 3 to 5 h | – | – | 510%
